Laboratory results from US20250154141A1 (University of Florida Research Foundation, Incorporated, priority 2021, published 2025).
Like-named read-outs stand apart in the source and are kept apart here.

What was measured:
RS4; 11 = assay: Cell viability assay (MTS) in RS4; 11 cells; format: cell-based; conditions: Homo sapiens
Experimental: (§1) Acute lymphoblastic leukemia cells (MOLT-4 and RS4; 11) were incubated with increasing concentrations of Bcl-xL degraders for 48 h. Cell viability was measured by tetrazolium-based MTS assay.

MOLT-4 = assay: Cell viability assay (MTS) in MOLT-4 cells; format: cell-based; conditions: Homo sapiens
Experimental: as §1

[1] = RS4-11, Table 2, 48 hr, MTS, read-out: Anti-Cancer Activity IC50 (48 hr) RS4, 11
[2] = MOLT-4, Table 2, 48 hr, MTS, read-out: Anti-Cancer Activity IC50 (48 hr) MOLT-4
[3] = RS4-11, Table 2A, 48 hr, MTS, read-out: Anti-Cancer Activity IC50 (48 hr) RS4, 11
[4] = MOLT-4, Table 2A, 48 hr, MTS, read-out: Anti-Cancer Activity IC50 (48 hr) MOLT-4

SMILES | IC50 (RS4; 11; [1]) [µM] | IC50 (MOLT-4; [2]) [µM] | also measured
Cc1ncsc1-c1ccc([C@H](C)NC(=O)[C@@H]2C[C@@H](O)CN2C(=O)[C@@H](NC(=O)CCCCCCC(=O)N2CCN(C[C@]3(C)CCC(c4ccc(Cl)cc4)=C(CN4CCN(c5ccc(C(=O)NS(=O)(=O)c6ccc(N[C@H](CCN7CCCCC7)CSc7ccccc7)c(S(=O)(=O)C(F)(F)F)c6)cc5)CC4)C3)CC2)C(C)(C)C)cc1 [Compound 58, (2S,4R)-1-((S)-2-(8-(4-(((R)-4′-chloro-4-methyl-6-((4-(4-(((4-(((R)-1-(phenylthio)-4-(piperidin-1-yl)butan-2-yl)amino)-3-((trifluoromethyl)sulfonyl)phenyl)sulfonyl)carbamoyl)phenyl)piperazin-1-yl)methyl)-2,3,4,5-tetrahydro-[1,1′-biphenyl]-4-yl)methyl)piperazin-1-yl)-8-oxooctanamido)-3,3-dimethylbutanoyl)-4-hydroxy-N—((S)-1-(4-(4-methylthiazol-5-yl)phenyl)ethyl)pyrrolidine-2-carboxamide] | < 0.02 | < 0.02 | 
Cc1ncsc1-c1ccc([C@H](C)NC(=O)[C@@H]2C[C@@H](O)CN2C(=O)[C@@H](NC(=O)COCCCNC(=O)c2ccc(N3CCN(C[C@]4(C)CCC(c5ccc(Cl)cc5)=C(CN5CCN(c6ccc(C(=O)NS(=O)(=O)c7ccc(N[C@H](CCN8CCCOCC8)CSc8ccccc8)c(S(=O)(=O)C(F)(F)F)c7)cc6)CC5)C4)CC3)nn2)C(C)(C)C)cc1 [Compound 111] |  |  | IC50 (RS4; 11; [3]): < 0.02 µM; IC50 (MOLT-4; [4]): < 0.02 µM
Cc1ncsc1-c1ccc([C@H](C)NC(=O)[C@@H]2C[C@@H](O)CN2C(=O)[C@@H](NC(=O)CN2CCN(C(=O)CC(=O)N3CCN(C[C@]4(C)CCC(c5ccc(Cl)cc5)=C(CN5CCN(c6ccc(C(=O)NS(=O)(=O)c7ccc(N[C@H](CCN8CCCOCC8)CSc8ccccc8)c(S(=O)(=O)C(F)(F)F)c7)cc6)CC5)C4)CC3)CC2)C(C)(C)C)cc1 [Compound 115] |  |  | IC50 (RS4; 11; RS4-11, 48 h, read-out: Anti-Cancer Activity IC50 (48 hr) RS4, 11): < 0.02 µM; IC50 (MOLT-4; MOLT-4, 48 h, read-out: Anti-Cancer Activity IC50 (48 hr) MOLT-4): < 0.02 µM
Cc1ncsc1-c1ccc([C@H](C)NC(=O)[C@@H]2C[C@@H](O)CN2C(=O)[C@@H](NC(=O)CCCCCOCc2cn(CC3(C)CCC(c4ccc(Cl)cc4)=C(CN4CCN(c5ccc(C(=O)NS(=O)(=O)c6ccc(N[C@H](CCN7CCOCC7)CSc7ccccc7)c(S(=O)(=O)C(F)(F)F)c6)cc5)CC4)C3)nn2)C(C)(C)C)cc1 (stereo partly drawn) [Compound 20, (2S,4R)-1-((2S)-2-(6-((1-((4′-chloro-4-methyl-6-((4-(4-(((4-(((R)-4-morpholino-1-(phenylthio)butan-2-yl)amino)-3-((trifluoromethyl)sulfonyl)phenyl)sulfonyl)carbamoyl)phenyl)piperazin-1-yl)methyl)-2,3,4,5-tetrahydro-[1,1′-biphenyl]-4-yl)methyl)-1H-1,2,3-triazol-4-yl)methoxy)hexanamido)-3,3-dimethylbutanoyl)-4-hydroxy-N—((S)-1-(4-(4-methylthiazol-5-yl)phenyl)ethyl)pyrrolidine-2-carboxamide] | < 0.02 | 0.02 to 0.1 | IC50 (RS4; 11; RS4-11, Table 5, 48 h, read-out: RS4 48 h IC50): 0.0156 µM; IC50 (MOLT-4; MOLT-4, Table 5, 48 h, read-out: MOLT-4 48 h IC50): 0.0881 µM
Cc1ncsc1-c1ccc([C@H](C)NC(=O)[C@@H]2C[C@@H](O)CN2C(=O)[C@@H](NC(=O)CCCCCNC(=O)c2cnc(N3CCN(C[C@]4(C)CCC(c5ccc(Cl)cc5)=C(CN5CCN(c6ccc(C(=O)NS(=O)(=O)c7ccc(N[C@H](CCN8CCCOCC8)CSc8ccccc8)c(S(=O)(=O)C(F)(F)F)c7)cc6)CC5)C4)CC3)nc2)C(C)(C)C)cc1 [Compound 78] | 0.02 to 0.1 | < 0.02 | 
Cc1ncsc1-c1ccc([C@H](C)NC(=O)[C@@H]2C[C@@H](O)CN2C(=O)[C@@H](NC(=O)CCCCCC(=O)N2CCN(CC3CCN(CC4(C)CCC(c5ccc(Cl)cc5)=C(CN5CCN(c6ccc(C(=O)NS(=O)(=O)c7ccc(N[C@H](CCN8CCOCC8)CSc8ccccc8)c(S(=O)(=O)C(F)(F)F)c7)cc6)CC5)C4)CC3)CC2)C(C)(C)C)cc1 (some centres unmarked) [Compound 19] | 0.02 to 0.1 | < 0.02 | 
Cc1ncsc1-c1ccc([C@H](C)NC(=O)[C@@H]2C[C@@H](O)CN2C(=O)[C@@H](NC(=O)CCCCCCC(=O)N2CCN(C[C@]3(C)CCC(c4ccc(Cl)cc4)=C(CN4CCN(c5ccc(C(=O)NS(=O)(=O)c6ccc(N[C@H](CCN7CCCOCC7)CSc7ccccc7)c(S(=O)(=O)C(F)(F)F)c6)cc5)CC4)C3)C[C@@H]2C)C(C)(C)C)cc1 [Compound 82] | 0.02 to 0.1 | < 0.02 | 
Cc1ncsc1-c1ccc([C@H](C)NC(=O)[C@@H]2C[C@@H](O)CN2C(=O)[C@@H](NC(=O)CCCCCCC(=O)N2CCN(C[C@]3(C)CCC(c4ccc(Cl)cc4)=C(CN4CCN(c5ccc(C(=O)NS(=O)(=O)c6ccc(N[C@H](CCN7CCc8cccnc8C7)CSc7ccccc7)c([N+](=O)[O-])c6)cc5)CC4)C3)CC2)C(C)(C)C)cc1 [Compound 57, (2S,4R)-1-((S)-2-(8-(4-(((R)-4′-chloro-6-((4-(4-(((4-(((R)-4-(5,8-dihydro-1,7-naphthyridin-7(6H)-yl)-1-(phenylthio)butan-2-yl)amino)-3-nitrophenyl)sulfonyl)carbamoyl)phenyl)piperazin-1-yl)methyl)-4-methyl-2,3,4,5-tetrahydro-[1,1′-biphenyl]-4-yl)methyl)piperazin-1-yl)-8-oxooctanamido)-3,3-dimethylbutanoyl)-4-hydroxy-N—((S)-1-(4-(4-methylthiazol-5-yl)phenyl)ethyl)pyrrolidine-2-carboxamide] | 0.02 to 0.1 | 0.1 to 0.5 | 
Cc1ncsc1-c1ccc([C@H](C)NC(=O)[C@@H]2C[C@@H](O)CN2C(=O)[C@@H](NC(=O)CCCNC(=O)c2ccc(N3CCN(CC4(C)CCC(c5ccc(Cl)cc5)=C(CN5CCN(c6ccc(C(=O)NS(=O)(=O)c7ccc(N[C@H](CCN8CCOCC8)CSc8ccccc8)c(S(=O)(=O)C(F)(F)F)c7)cc6)CC5)C4)CC3)cc2)C(C)(C)C)cc1 (stereo partly drawn) [Compound 11, (2S,4R)-1-((2S)-2-(4-(4-(4-((4′-chloro-4-methyl-6-((4-(4-(((4-(((R)-4-morpholino-1-(phenylthio)butan-2-yl)amino)-3-((trifluoromethyl)sulfonyl)phenyl)sulfonyl)carbamoyl)phenyl)piperazin-1-yl)methyl)-2,3,4,5-tetrahydro-[1,1′-biphenyl]-4-yl)methyl)piperazin-1-yl)benzamido)butanamido)-3,3-dimethylbutanoyl)-4-hydroxy-N—((S)-1-(4-(4-methylthiazol-5-yl)phenyl)ethyl)pyrrolidine-2-carboxamide] | 0.02 to 0.1 | 0.02 to 0.1 | 
Cc1ncsc1-c1ccc([C@H](C)NC(=O)[C@@H]2C[C@@H](O)CN2C(=O)[C@@H](NC(=O)CCCCC(=O)N2CCN(C3CCN(C[C@]4(C)CCC(c5ccc(Cl)cc5)=C(CN5CCN(c6ccc(C(=O)NS(=O)(=O)c7ccc(N[C@H](CCN8CCCOCC8)CSc8ccccc8)c(S(=O)(=O)C(F)(F)F)c7)cc6)CC5)C4)CC3)CC2)C(C)(C)C)cc1 [Compound 119] |  |  | IC50 (RS4; 11; [3]): < 0.02 µM; IC50 (MOLT-4; [4]): < 0.02 µM
Cc1ncsc1-c1ccc([C@H](C)NC(=O)[C@@H]2C[C@@H](O)CN2C(=O)[C@@H](NC(=O)CCCCC(=O)N2CCC(C3CCN(C[C@]4(C)CCC(c5ccc(Cl)cc5)=C(CN5CCN(c6ccc(C(=O)NS(=O)(=O)c7ccc(N[C@H](CCN8CCCOCC8)CSc8ccccc8)c(S(=O)(=O)C(F)(F)F)c7)cc6)CC5)C4)CC3)CC2)C(C)(C)C)cc1 [Compound 116] |  |  | IC50 (RS4; 11; [3]): < 0.02 µM; IC50 (MOLT-4; [4]): < 0.02 µM
Cc1ncsc1-c1ccc([C@H](C)NC(=O)[C@@H]2C[C@@H](O)CN2C(=O)[C@@H](NC(=O)CCCCCCC(=O)N2CCC(C3CCN(CC4(C)CCC(c5ccc(Cl)cc5)=C(CN5CCN(c6ccc(C(=O)NS(=O)(=O)c7ccc(N[C@H](CCN8C[C@H]9C[C@@H]8CO9)CSc8ccccc8)c(S(=O)(=O)C(F)(F)F)c7)cc6)CC5)C4)CC3)CC2)C(C)(C)C)cc1 (some centres unmarked) [Compound 70] | < 0.02 | < 0.02 | 
Cc1ncsc1-c1ccc([C@H](C)NC(=O)[C@@H]2C[C@@H](O)CN2C(=O)[C@@H](NC(=O)CCCCCCC(=O)N2CCN(C[C@]3(C)CCC(c4ccc(Cl)cc4)=C(CN4CCN(c5ccc(C(=O)NS(=O)(=O)c6ccc(N[C@H](CCN7CCCCC7)CSc7ccccc7)c([N+](=O)[O-])c6)cc5)CC4)C3)CC2)C(C)(C)C)cc1 [Compound 40, (2S,4R)-1-((S)-2-(8-(4-(((R)-4′-chloro-4-methyl-6-((4-(4-(((3-nitro-4-(((R)-1-(phenylthio)-4-(piperidin-1-yl)butan-2-yl)amino)phenyl)sulfonyl)carbamoyl)phenyl)piperazin-1-yl)methyl)-2,3,4,5-tetrahydro-[1,1′-biphenyl]-4-yl)methyl)piperazin-1-yl)-8-oxooctanamido)-3,3-dimethylbutanoyl)-4-hydroxy-N—((S)-1-(4-(4-methylthiazol-5-yl)phenyl)ethyl)pyrrolidine-2-carboxamide] | < 0.02 | < 0.02 | 
Cc1ncsc1-c1ccc([C@H](C)NC(=O)[C@@H]2C[C@@H](O)CN2C(=O)[C@@H](NC(=O)CCCCCOCc2cn(CCCC(=O)NCC3(C)CCC(c4ccc(Cl)cc4)=C(CN4CCN(c5ccc(C(=O)NS(=O)(=O)c6ccc(N[C@H](CCN7CCOCC7)CSc7ccccc7)c(S(=O)(=O)C(F)(F)F)c6)cc5)CC4)C3)nn2)C(C)(C)C)cc1 (some centres unmarked) [Compound 22] | 0.1 to 0.5 | 0.1 to 0.5 | 
Cc1ncsc1-c1ccc([C@H](C)NC(=O)[C@@H]2C[C@@H](O)CN2C(=O)[C@@H](NC(=O)COCCOCc2cn(CCCC(=O)NCC3(C)CCC(c4ccc(Cl)cc4)=C(CN4CCN(c5ccc(C(=O)NS(=O)(=O)c6ccc(N[C@H](CCN7CCOCC7)CSc7ccccc7)c(S(=O)(=O)C(F)(F)F)c6)cc5)CC4)C3)nn2)C(C)(C)C)cc1 (some centres unmarked) [Compound 23] | 0.5 to 10 | 0.5 to 10 | 
